Measurements as given in patent US20050113253A1, “Fertilizer” (priority 2003, published 2005).

Assays:
[1] = also printed as 187° F.; cited from earlier work
[2] = Solubility of prodiamine in N-methyl pyrrolidone liquid carrier; type: physicochemical; details: N-methyl pyrrolidone as liquid carrier; heating and gentle mixing
Excerpt: For example, when N-methyl pyrrolidone is used as the liquid carrier for prodiamine, concentrations of 50 wt. % or more can be easily achieved by heating and gentle mixing. For convenience, however, concentrations on the order of 10 to 50 wt. %, and especially about 30 to 40 wt. %, are appropriate.
A mixture of 37.6 wt. % Prodiamine Technical Grade Herbicide (94.8% active) obtained from SipCam Aro USA of Roswell, Ga., and 62.4 wt. % M-Pyrol (N-methyl pyrrolidone) solvent obtained from ISP Technologies, Inc., of Wayne, N.J., was heated to about 75° C. (about 165° F.) with mechanical stirring until the prodiamine completely dissolved. The composition so obtained was then allowed to cool to ambient and then sprayed onto a moving bed of particulate fertilizer composed of a mixture of different fertilizer ingredients having particle sizes ranging from 4.75 to 1.18 mm, a combined bulk density of 0.92 gms/cc and containing about 24% nitrogen, 5% phosphorous and 11% potassium, measured as units of total nitrogen (N), available phosphate (P2O5) and soluble potash (K2O).

CN1CCCC1=O [N-methyl pyrrolidone]
flash point [1]: ~86 °C

CCCN(CCC)c1c([N+](=O)[O-])cc(C(F)(F)F)c(N)c1[N+](=O)[O-] [prodiamine, 2,4-dinitro-N^3,N^3-di-n-propyl-6-(trfluoromethyl)-1,3-benzenediamine]
concentration achievable (dissolved) in N-methyl pyrrolidone [2]: ≥ 50 wt. %
